Key:
[1] = system: dietary induced obese (DIO) mouse model; experiment: 24 h energy expenditure by indirect calorimetry, chronic dosing study; type: in vivo; conditions: DIO mice
Description: The C57B1/6 mouse fed on a high fat diet for around 12 weeks is a standard model used to evaluate agents likely to affect metabolic disease including obesity, type II diabetes and dyslipidaemia. Thus both potential anti-obesity effects and effects on diabetic and dyslipidaemia parameters will be measured.
Once the acute studies were complete the mice were grouped in two groups of five mice for the chronic dosing study. Dosing was daily by oral gavage at 09:00-10:00.

[2] = system: dietary induced obese (DIO) mouse model; experiment: Percentage body fat by Dexascan; type: in vivo; conditions: DIO mice; day 28 Dexascan; pure THCV at 30-fold lower dose than rimonabant
PPARγ = target: T1, PPARγ (Homo sapiens, UniProt P37231); experiment: Transcriptional transactivation assay (luciferase reporter gene 3xPPRE TK luc); type: cell-based; conditions: any concentration tested
T1 construct: expressed in transfected cells
T1 sequence (P37231 1-505): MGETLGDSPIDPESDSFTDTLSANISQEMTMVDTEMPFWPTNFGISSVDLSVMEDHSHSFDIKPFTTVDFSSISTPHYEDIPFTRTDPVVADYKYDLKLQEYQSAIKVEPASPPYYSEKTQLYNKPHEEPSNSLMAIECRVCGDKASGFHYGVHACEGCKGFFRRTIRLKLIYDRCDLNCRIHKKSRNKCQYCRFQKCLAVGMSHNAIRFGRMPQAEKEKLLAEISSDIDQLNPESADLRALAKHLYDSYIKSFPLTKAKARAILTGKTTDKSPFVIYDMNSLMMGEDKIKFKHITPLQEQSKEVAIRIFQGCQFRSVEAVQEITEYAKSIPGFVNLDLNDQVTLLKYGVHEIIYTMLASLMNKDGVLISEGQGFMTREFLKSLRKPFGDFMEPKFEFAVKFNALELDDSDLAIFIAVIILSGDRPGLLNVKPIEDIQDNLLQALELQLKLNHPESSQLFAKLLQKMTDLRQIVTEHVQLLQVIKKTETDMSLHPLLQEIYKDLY
T1 sequence (P19793 1-462 partner): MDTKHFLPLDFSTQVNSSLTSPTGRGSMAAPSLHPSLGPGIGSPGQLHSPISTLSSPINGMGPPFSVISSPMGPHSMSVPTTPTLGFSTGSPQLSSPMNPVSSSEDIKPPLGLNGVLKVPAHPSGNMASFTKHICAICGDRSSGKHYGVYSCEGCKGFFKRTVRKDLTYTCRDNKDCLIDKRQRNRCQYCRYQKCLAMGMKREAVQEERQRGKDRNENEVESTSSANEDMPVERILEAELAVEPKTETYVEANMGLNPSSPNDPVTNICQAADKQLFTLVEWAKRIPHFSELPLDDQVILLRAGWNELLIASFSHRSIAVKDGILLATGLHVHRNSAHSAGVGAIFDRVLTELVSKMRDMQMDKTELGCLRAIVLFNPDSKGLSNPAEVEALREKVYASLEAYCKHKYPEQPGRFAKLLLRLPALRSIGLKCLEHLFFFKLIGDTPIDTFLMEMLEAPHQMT
Procedure: In vitro vascular studies were carried out in rat isolated aortae by wire myography. PPARγ activation was investigated using reporter gene assays, a PPARγ competition-binding assay and an adipogenesis assay.

C57B1/6 ob/ob mouse = experiment: Plasma triglycerides; type: in vivo; conditions: ob/ob mice; CBD given on its own (3.0 mg/kg)
Procedure: The following are a battery of tests used to elicit the effects of drugs on diseases including type I or II diabetes, obesity, dyslipidaemia, related metabolic disorders and cardiovascular disease. • a) Body weight: Bodyweights of all mice were measured twice weekly during the study. • b) Food intake: Food intake was measured by weight difference taking account of food wastage in the bottom of the cage. • c) Measurement of water consumption: Water intake was calculated daily for each animal, during the treatment period, by weight difference of the water bottle. • d) Oral Glucose Tolerance Test (OGTT): Glucose was dissolved in water (3 g/10 ml) and given to the mice orally at a rate of 3 g/kg. […] Samples were then analysed automatically using a SpectraMax-250 and SoftMax Pro software. • f) Plasma preparation: Blood was collected for the measurement of i) plasma insulin, ii) cholesterol, iii) free fatty acids or iv) triglyceride concentration. • i. Plasma insulin analysis: Plasma insulin was measured using 5 μl of plasma, compared with a mouse insulin standard using a 96-well micro-assay plate • ii. […] The samples were mixed and incubated for 5 minutes before reading at dual wavelengths of 500 and 660 nm. • iii. Plasma free fatty acids: 5 μl samples of plasma were measured into a 96-well assay plate, to which was added 0.2 ml of reagents NEFA C • iv. […]

NOD mice = conditions: 86% in non-treated controls; cited from earlier work

With `CCCc1cc(O)c2c(c1)OC(C)(C)[C@@H]1CCC(C)=C[C@@H]21` [THCV, tetrahydrocannabivarin] the “Potency on energy expenditure relative to rimonabant, on a dosage basis” value [1] was “at least 10 fold”, the “Effectiveness on energy expenditure compared with rimonabant” value ([1]; high dose THCV-BDS, pure THCV 0.3 mg kg−1) was “more effective than rimonabant” and the Percentage body fat [2] was “at least as effective as rimonabant”. For the same compound, the PPARγ transcriptional activity (PPARγ) was “no effect”.
In the case of `C=C(C)[C@@H]1CCC(C)=C[C@H]1c1c(O)cc(CCCCC)cc1O` [CBD, cannabidiol], the Plasma triglycerides (C57B1/6 ob/ob mouse) is given as “no effect on plasma triglycerides” and the Incidence of diabetes (NOD mice) is given as 30%.
